# System: Trypanosome (T. brucei brucei)
# Experiment: In-vitro antitrypanosomal efficacy assay (cell growth, resazurin)
# Type: cell-based
# Details: T. brucei brucei, blood stream form, variant 221
# Description: To column 12, 200 μl media was added to provide a no cells control. Plates were then incubated at 37° C. in an atmosphere of 5% CO2 for 69 hours, before the addition of 20 μl of 500 μM rezasurin solution, and a further incubation period of 4 hours. […] Concentration effect curves were fitted using non-linear regression using XLFit 4.2 and EC50 values determined.
row,SMILES,ED50 (μM) T. brucei [µM]
1,Cc1nn(C)c(C)c1N(C)[S+](=O)([O-])c1ccc(CCCCCCCN(C)C)cc1 [DDD99825],0.054
2,Cc1nn(C)c(C)c1N(C(F)F)[S+](=O)([O-])c1c(Cl)cc(CCCOC2CN3CCC2CC3)cc1Cl (stereo not shown) [DDD100872],0.002
3,Cc1nn(C)c(C)c1N(CC(F)(F)F)[S+](=O)([O-])c1c(Cl)cc(CCCOC2CCN(C)CC2)cc1Cl [DDD100803],0.008
4,Cc1nn(C)c(C)c1N(C)[S+](=O)([O-])c1c(Cl)cc(CCCCCn2ccnc2)cc1Cl [DDD99834],0.225

# Same assay, conditions: T. brucei cell growth
row,SMILES,ED50 (μM) T. brucei [µM]
1,Cc1nn(C)c(C)c1N(C)[S+](=O)([O-])c1c(Cl)cc(-c2cccc(CN3CCN(C)CC3)c2)cc1Cl [DDD90118],0.015
2,Cc1nn(C)c(C)c1N[S+](=O)([O-])c1ccc(N2CCC(NC3CCN(Cc4ccccc4)C3)CC2)nc1 (stereo not shown) [DDD86473],>1
3,Cc1nn(C)c(C)c1N[S+](=O)([O-])c1c(Cl)cc(CCCC2CCN(C)CC2)cc1Cl [DDD88557],0.002
4,Cc1nn(C)c(C)c1N[S+](=O)([O-])c1ccc(CCCC2CCN(C)CC2)cc1 [DDD88559],0.038
5,Cc1c(N(C)[S+](=O)([O-])c2ccc(-c3cccc(C4CCNCC4)c3)cc2)c(CC(C)C)nn1C [DDD99815],0.123
6,"Cc1nn(C)c(C)c1N[S+](=O)([O-])c1ccc(-c2cccc(CN3CCCC3)c2)cc1 [DDD86318, 3′-Pyrrolidin-1-ylmethyl-biphenyl-4-sulfonic acid (1,3,5-trimethyl-1H-pyrazol-4-yl)-amide]",0.21
7,CCN(CC)Cc1cccc(-c2cc(Cl)c([S+](=O)([O-])N(C)c3c(C)nn(C)c3C)c(Cl)c2)c1 [DDD88641],0.31
8,Cc1nn(C)c(C)c1N[S+](=O)([O-])c1c(Cl)cc(-c2ccc(CN(C)Cc3ccccc3)cc2)cc1Cl [DDD85632],>1
9,"Cn1cc(N[S+](=O)([O-])c2ccc(-c3ccnc(N4CCNCC4)c3)cc2)cn1 [DDD86474, N-(1-Methyl-1H-pyrazol-4-yl)-4-(2-piperazin-1-yl-pyridin-4-yl)-benzenesulfonamide]",0.65
10,"Cc1nn(C)c(C)c1N[S+](=O)([O-])c1ccc(C#CCN2CCN(C)CC2)cc1 [DDD87999, 4-[3-(4-Methyl-piperazin-1-yl)-prop-1-ynyl]-N-(1,3,5-trimethyl-1H-pyrazol-4-yl)-benzenesulfonamide]",>1
11,Cc1nn(C)c(C)c1N(C)[S+](=O)([O-])c1ccc(-c2cccc(CC3CCN(C)CC3)c2)cc1 [DDD90091],0.063
12,Cc1nn(C)c(C)c1N[S+](=O)([O-])c1ccc(NCCc2ccccc2)nc1 [DDD73319],8.4
13,CCN(CC)Cc1cccc(-c2ccc([S+](=O)([O-])N(C)c3c(CC(C)C)nn(C)c3C)cc2)c1 [DDD88643],0.49
14,Cc1nn(C)c(C)c1N[S+](=O)([O-])c1ccc(CCCC2CCNCC2)cc1 [DDD99758],0.110
15,"CCN(CC)Cc1cccc(-c2ccc([S+](=O)([O-])Nc3c(C)nn(C)c3C)cc2)c1 [DDD86312, 3′-Diethylaminomethyl-biphenyl-4-sulfonic acid (1,3,5-trimethyl-1H-pyrazol-4-yl)-amide]",0.07
16,Cc1nn(C)c(C)c1N(C)[S+](=O)([O-])c1c(Cl)cc(CCCC2CCNCC2)cc1Cl [DDD90022],0.002
17,Cc1nn(C)c(C)c1N[S+](=O)([O-])c1ccc(N2CCCC(N3CCNCC3)C2)nc1 (stereo not shown) [DDD87757],0.003
18,"Cc1nn(C)c(C)c1N[S+](=O)([O-])c1ccc(-c2cccc(CN3CCN(C(=O)OC(C)(C)C)CC3)c2)cc1 [DDD86315, 4-[4′-(1,3,5-Trimethyl-1H-pyrazol-4-ylsulfamoyl)-biphenyl-3-ylmethyl]-piperazine-1-carboxylic acid tert-butyl ester]",>1
